Results on one molecule are retold here after ChEMBL document CHEMBL1201862, “PubChem BioAssay data set” (2004).

What all share (assay type): functional
The target of assay [1] is Serine/threonine-protein kinase TAO1 (Homo sapiens, UniProt Q7L7X3).
In another assay the target is Aurora kinase A (Homo sapiens, UniProt O14965).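 Further: value from the Navigating the Kinome kinase panel profiling, panel entry STK6.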
Assay [2] addresses Leukocyte tyrosine kinase receptor (Homo sapiens, UniProt P29376). The assay is described as follows: Navigating the Kinome. Panel member name: LTK.
Assay [3] concerns the target Ribosomal protein S6 kinase alpha-3 (Homo sapiens, UniProt P51812).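 Further: measured within a kinome-wide profiling panel.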

The source made the active and inactive calls.

Ribosomal protein S6 kinase alpha-3, sequence (P51812 whole entry): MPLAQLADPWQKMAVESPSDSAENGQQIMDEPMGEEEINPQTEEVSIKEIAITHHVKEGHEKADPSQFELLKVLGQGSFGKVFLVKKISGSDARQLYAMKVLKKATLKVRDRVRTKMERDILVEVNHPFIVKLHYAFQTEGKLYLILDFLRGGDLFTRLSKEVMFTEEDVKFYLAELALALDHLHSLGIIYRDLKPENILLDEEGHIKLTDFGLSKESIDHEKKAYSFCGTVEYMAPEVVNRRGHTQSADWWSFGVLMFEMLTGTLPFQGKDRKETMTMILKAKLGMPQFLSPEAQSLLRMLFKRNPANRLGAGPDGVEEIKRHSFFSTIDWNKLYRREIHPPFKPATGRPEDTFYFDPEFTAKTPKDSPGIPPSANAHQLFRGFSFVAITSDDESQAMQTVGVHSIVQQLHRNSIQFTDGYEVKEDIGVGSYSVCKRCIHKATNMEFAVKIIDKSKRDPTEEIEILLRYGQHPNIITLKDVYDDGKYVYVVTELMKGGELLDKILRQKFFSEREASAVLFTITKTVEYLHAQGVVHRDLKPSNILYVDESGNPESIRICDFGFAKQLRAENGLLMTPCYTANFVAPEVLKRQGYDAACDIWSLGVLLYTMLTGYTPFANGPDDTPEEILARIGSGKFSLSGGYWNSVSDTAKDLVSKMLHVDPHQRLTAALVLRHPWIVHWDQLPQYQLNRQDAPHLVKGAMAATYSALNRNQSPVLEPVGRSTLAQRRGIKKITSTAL
Leukocyte tyrosine kinase receptor, sequence (P29376 whole entry): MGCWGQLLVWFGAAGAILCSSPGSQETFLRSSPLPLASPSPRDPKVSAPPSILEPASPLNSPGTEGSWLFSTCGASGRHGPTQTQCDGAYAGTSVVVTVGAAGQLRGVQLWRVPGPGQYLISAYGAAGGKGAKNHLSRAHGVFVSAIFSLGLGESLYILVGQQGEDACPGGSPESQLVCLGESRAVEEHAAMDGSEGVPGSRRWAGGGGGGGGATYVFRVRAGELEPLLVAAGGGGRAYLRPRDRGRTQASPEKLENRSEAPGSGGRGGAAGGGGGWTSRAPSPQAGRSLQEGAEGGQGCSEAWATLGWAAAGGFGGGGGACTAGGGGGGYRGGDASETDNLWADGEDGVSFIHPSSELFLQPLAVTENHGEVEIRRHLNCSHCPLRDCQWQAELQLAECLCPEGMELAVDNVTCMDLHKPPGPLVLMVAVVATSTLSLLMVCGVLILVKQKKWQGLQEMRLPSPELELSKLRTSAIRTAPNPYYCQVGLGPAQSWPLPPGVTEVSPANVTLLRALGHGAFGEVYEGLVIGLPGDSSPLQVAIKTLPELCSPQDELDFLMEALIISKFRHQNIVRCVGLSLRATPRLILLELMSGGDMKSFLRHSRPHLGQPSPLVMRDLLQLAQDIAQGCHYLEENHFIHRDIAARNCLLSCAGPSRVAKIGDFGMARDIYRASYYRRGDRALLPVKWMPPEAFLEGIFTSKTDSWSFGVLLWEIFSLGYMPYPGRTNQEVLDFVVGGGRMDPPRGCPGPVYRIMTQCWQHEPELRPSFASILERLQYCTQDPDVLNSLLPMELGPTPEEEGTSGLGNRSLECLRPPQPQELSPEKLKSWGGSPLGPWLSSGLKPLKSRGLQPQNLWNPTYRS
Aurora kinase A, sequence (O14965 whole entry): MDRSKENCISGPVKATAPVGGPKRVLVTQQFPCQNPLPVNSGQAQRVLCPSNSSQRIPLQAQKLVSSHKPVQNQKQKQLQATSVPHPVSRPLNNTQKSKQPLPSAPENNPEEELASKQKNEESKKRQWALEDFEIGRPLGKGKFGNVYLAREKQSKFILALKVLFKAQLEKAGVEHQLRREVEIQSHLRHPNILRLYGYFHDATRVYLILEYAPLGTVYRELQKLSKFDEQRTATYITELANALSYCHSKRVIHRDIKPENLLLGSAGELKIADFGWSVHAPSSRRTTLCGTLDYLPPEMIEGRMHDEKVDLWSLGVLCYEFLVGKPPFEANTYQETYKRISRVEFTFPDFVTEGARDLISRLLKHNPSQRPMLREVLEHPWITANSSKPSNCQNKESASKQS
Serine/threonine-protein kinase TAO1, sequence (Q7L7X3 whole entry): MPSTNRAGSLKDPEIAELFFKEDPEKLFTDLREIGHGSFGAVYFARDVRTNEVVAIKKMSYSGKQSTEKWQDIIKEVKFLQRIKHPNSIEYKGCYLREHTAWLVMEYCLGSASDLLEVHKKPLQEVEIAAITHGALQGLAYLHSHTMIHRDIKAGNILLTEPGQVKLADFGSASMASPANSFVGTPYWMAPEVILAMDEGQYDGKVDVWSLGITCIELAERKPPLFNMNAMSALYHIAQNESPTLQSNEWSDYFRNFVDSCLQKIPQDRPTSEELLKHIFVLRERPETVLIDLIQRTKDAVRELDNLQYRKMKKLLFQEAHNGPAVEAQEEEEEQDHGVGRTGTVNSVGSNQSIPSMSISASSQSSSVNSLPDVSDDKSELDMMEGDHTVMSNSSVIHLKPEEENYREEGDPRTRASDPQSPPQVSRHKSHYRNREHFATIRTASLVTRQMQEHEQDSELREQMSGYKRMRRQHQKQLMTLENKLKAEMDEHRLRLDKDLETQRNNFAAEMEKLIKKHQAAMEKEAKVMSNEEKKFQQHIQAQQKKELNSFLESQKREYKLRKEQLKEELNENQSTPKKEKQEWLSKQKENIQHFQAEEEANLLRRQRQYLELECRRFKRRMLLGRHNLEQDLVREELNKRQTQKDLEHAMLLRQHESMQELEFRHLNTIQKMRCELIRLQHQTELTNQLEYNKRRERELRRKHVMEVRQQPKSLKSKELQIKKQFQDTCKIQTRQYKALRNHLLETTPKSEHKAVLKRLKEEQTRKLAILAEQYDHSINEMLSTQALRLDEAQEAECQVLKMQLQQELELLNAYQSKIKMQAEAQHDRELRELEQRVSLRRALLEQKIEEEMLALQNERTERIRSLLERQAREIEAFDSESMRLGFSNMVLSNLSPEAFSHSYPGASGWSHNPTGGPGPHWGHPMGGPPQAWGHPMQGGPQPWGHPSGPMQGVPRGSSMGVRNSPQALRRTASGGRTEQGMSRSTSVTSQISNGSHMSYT

One may read the Ki as a dissociation constant, usually derived from enzyme kinetics or from competition with a known ligand. On to `COc1cccc(C(C)NC(=O)c2ccc(-c3ccncc3)s2)c1` (centres undefined), for which the Ki is > 6310 nM (inactive) in assay [1], 200 nM (active) on Aurora kinase A, > 2510 nM (inactive) in assay [2] and 1580 nM (active) in assay [3].
